Assay results: PubChem BioAssay (NCI)
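Dose response: 5 concentrations. Exposure: 48 h. Format: 96-well plates. Endpoint: linear interpolation; highest concentration if not reached. TGI: total growth inhibition.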 Where a SMILES comes first, the peptide text is derived from it. The star is where a group is joined. Boc = CC(C)(C)OC(=O)*

Tests used:
Assay in all cases: NCI tumour cell line growth inhibition, 48 h
NCI-H522 lung = tested on: NCI-H522 lung
KM20L2 colon = tested on: KM20L2 colon
HCT-15 colon = tested on: HCT-15 colon
HCC-2998 colon = tested on: HCC-2998 colon
M19-MEL melanoma = tested on: M19-MEL melanoma
UACC-257 melanoma = tested on: UACC-257 melanoma
HT29 colon = tested on: HT29 colon
CCRF-CEM leukemia = tested on: CCRF-CEM leukemia
NCI-H460 lung = tested on: NCI-H460 lung
DMS 114 small cell lung = tested on: DMS 114 small cell lung
HOP-92 NSCLC = tested on: HOP-92 NSCLC
MDA-N = tested on: MDA-N

Compound	TGI (NCI-H522 lung)	TGI (KM20L2 colon)	TGI (HCT-15 colon)	TGI (HCC-2998 colon)	TGI (M19-MEL melanoma)	TGI (UACC-257 melanoma)	TGI (HT29 colon)	TGI (CCRF-CEM leukemia)	TGI (NCI-H460 lung)	TGI (DMS 114 small cell lung)	TGI (HOP-92 NSCLC)	TGI (MDA-N)
CCC12CCCN(Cc3ccccc3)C1c1c(n(C)c3ccccc13)C(CO)C2 (centres undefined)	66.7 µM	78.1 µM	78.1 µM	121 µM	125 µM	95.1 µM	72.2 µM	> 257 µM	73.8 µM	84.5 µM	110 µM	
CC[C@@]1(O)C[C@H](OC2CC(N(C)C)C(O)C(C)O2)c2c(cc3c(c2O)C(=O)c2c(O)ccc(O)c2C3=O)[C@H]1C(=O)OC (some centres undefined)	0.501 µM	0.969 µM	0.976 µM	0.579 µM	0.288 µM	0.317 µM	0.559 µM	0.603 µM	0.12 µM	0.489 µM	1.35 µM	
Cc1cc(=O)oc2cc(OCCCOc3ccc4c(C)cc(=O)oc4c3)ccc12		> 100 µM	> 100 µM	> 100 µM	> 100 µM	> 100 µM	> 100 µM	> 100 µM	> 100 µM	> 100 µM		
CC(C)(C)N/N=C(\C(=O)Nc1cccc(Cl)c1)C1C(=O)Nc2ccccc2S1=O (centres undefined)	> 100 µM	> 100 µM	> 100 µM	> 100 µM	> 100 µM	> 100 µM	> 100 µM	> 100 µM	> 100 µM	> 100 µM	> 100 µM	
CN(C)C(=O)Oc1c(Br)cc(Br)cc1C(=O)OCc1ccccc1	> 100 µM	57.7 µM	> 81.7 µM	> 96.5 µM	44.3 µM	60.2 µM	19.2 µM	68.3 µM	56.5 µM	53.1 µM	42.8 µM	
CC1(C)OC[C@H](C(=N)OCc2ccccc2)O1	> 100 µM	> 100 µM	> 100 µM	> 100 µM	> 100 µM	> 100 µM	> 100 µM	> 100 µM	> 100 µM	> 100 µM	> 100 µM	
CCC(=O)Nc1cccc(N=Cc2ccc(OC(=O)/C=C\c3ccccc3)cc2)c1	> 75 µM		> 75 µM	> 75 µM		> 75 µM	> 75 µM	> 75 µM	> 75 µM		> 75 µM	> 75 µM
Nc1nc(Cl)cc(OCC2(CO)CCCC2)n1	> 100 µM		> 100 µM	> 100 µM		> 100 µM	> 100 µM	> 100 µM	> 100 µM		> 100 µM	> 100 µM
C/C=C1/CN2CCC34c5ccccc5N(C)C23C2CC1C4(C(=O)OC)C(OC(C)=O)O2 (centres undefined)	> 100 µM		> 100 µM	> 100 µM		> 100 µM	> 100 µM	> 100 µM	> 100 µM		> 100 µM	> 100 µM
Cc1ccc(/C=C/C(=O)Oc2ccc(/C=C3\CCC/C(=C\c4ccc(OC(=O)/C=C/c5ccc(C)cc5)cc4)C3=O)cc2)cc1	> 100 µM		> 100 µM	> 100 µM		> 100 µM	> 100 µM	> 100 µM	> 100 µM		> 100 µM	> 100 µM
CCCCCCSc1nc(N)nc2nc[nH]c12	40.9 µM	> 100 µM	> 100 µM	> 100 µM	> 100 µM	> 100 µM	> 100 µM	> 100 µM	> 100 µM		72.1 µM	
COc1cccc2c1OC1Sc3ccccc3-c3nn(-c4ccccc4)c-2c31 (centres undefined)	> 100 µM	> 100 µM		> 100 µM	> 100 µM	> 100 µM	> 100 µM	> 100 µM	> 100 µM	> 100 µM	> 100 µM	
CCOC(=O)/C=C/C(=O)O/C=C/[N+](=O)[O-]	> 100 µM		> 100 µM	> 100 µM		> 100 µM	> 100 µM	> 100 µM	> 100 µM		> 100 µM	> 100 µM
Clc1ccc(CCNC2(c3cc4ccccc4s3)CCCCC2)cc1Cl	43.9 µM		37.7 µM	22.1 µM		42.7 µM	87.1 µM	31 µM	40.3 µM		29.8 µM	> 100 µM
CCOC(=O)c1[nH]cc(C)c1-c1cccn1-c1ccc(Cl)cc1[N+](=O)[O-]	34.9 µM		> 100 µM	66.3 µM		67.8 µM	30.7 µM	64.3 µM	48 µM		51.9 µM	69.6 µM
COC(=O)C(Cc1ccccc1)NC(=O)C(CS)NC(=O)OC(C)(C)C (stereo not drawn) (Boc-Cys-Phe-OMe; configuration not given here)	> 100 µM		> 100 µM	> 100 µM		> 100 µM	> 100 µM	89.3 µM	> 100 µM		> 100 µM	> 100 µM

Compound	TGI (NCI-H522 lung)	TGI (KM20L2 colon)	TGI (HCT-15 colon)	TGI (HCC-2998 colon)	TGI (M19-MEL melanoma)	TGI (UACC-257 melanoma)	TGI (HT29 colon)	TGI (CCRF-CEM leukemia)	TGI (NCI-H460 lung)	TGI (DMS 114 small cell lung)	TGI (HOP-92 NSCLC)	TGI (MDA-N)
O=C(CCBr)N1CCN(C(=O)CCBr)CC1	146 µM	277 µM	222 µM	140 µM	252 µM	246 µM	280 µM	257 µM	113 µM	140 µM	284 µM	225 µM
COc1ccc2c(c1)Oc1cc(O)ccc1[C@H]2c1ccccc1C(=O)NC(C)c1ccccc1 (some centres undefined)	28 µM	35.3 µM	35.5 µM	30.3 µM	29.4 µM	37.3 µM	41.5 µM	72.7 µM	26.8 µM	24.9 µM		
CC(C)=CC1C(C(=O)Oc2ccccc2C(C)C)C1(C)C (centres undefined)	35.5 µM		53.1 µM	33.4 µM		44.2 µM	36.9 µM	59.6 µM	47 µM		> 100 µM	90 µM
COc1cccc2c1C(=O)c1c(O)c3c(c(O)c1C2=O)C[C@@](O)(C(C)=O)CC3S(=O)(=O)O (some centres undefined)	> 100 µM	> 100 µM	> 100 µM	> 100 µM	> 100 µM	> 100 µM	> 100 µM	> 100 µM	> 100 µM	> 100 µM	> 100 µM	
c1coc(-c2nccc3c2[nH]c2ccccc23)c1	> 100 µM		> 100 µM	> 100 µM		> 100 µM	> 100 µM	> 100 µM	> 100 µM		> 100 µM	> 100 µM
O=C1C=C(Nc2ccccc2C(=O)CC(=O)C(=O)Nc2ccc(Cl)cc2)c2ccccc2C1=O	26.1 µM	> 100 µM	24.8 µM	35.8 µM	4.41 µM	21.7 µM	> 100 µM	33.1 µM	34.7 µM	16.8 µM	> 100 µM	
COc1ccc(-n2c(SC(CN3CCOCC3)CN3CCCC3=O)nc3ccccc3c2=O)cc1 (centres undefined)	> 100 µM		> 100 µM	> 100 µM		> 100 µM	> 100 µM	> 100 µM	> 100 µM		> 100 µM	> 100 µM
CC(C)(C)COC(=O)C(C)(C)NC(=O)C(CC(=O)OCc1ccccc1)NC(=O)OCc1ccccc1 (centres undefined)	> 100 µM		69.1 µM	> 100 µM		82.1 µM	87.9 µM	> 100 µM	> 100 µM		> 100 µM	> 100 µM
Cn1cnc(N2CCCC2)c(C#N)c1=S	> 100 µM		> 100 µM	> 100 µM		> 100 µM	> 100 µM	> 100 µM	> 100 µM		> 100 µM	> 100 µM
COC(=O)[C@H](CC(C)C)NC(=O)[C@H](Cc1ccccc1)N1CC2C=CC1C2 (some centres undefined)	> 100 µM	> 100 µM	> 100 µM	> 100 µM	> 100 µM	> 100 µM	> 100 µM	> 100 µM	> 100 µM	> 100 µM	> 100 µM	
Cc1ccc(S(=O)(=O)N2CCC[C@@H]2C(=O)O[C@@H]2CCC3CC=CC32)cc1 (some centres undefined)	50.8 µM		> 100 µM	> 100 µM		64.4 µM	> 100 µM	> 100 µM	> 100 µM		44 µM	78.6 µM
O=C(Cc1nc2ccc(C(=O)c3ccccc3)cc2[nH]c1=O)C(=O)Nc1nc2ccccc2[nH]1	> 100 µM	> 100 µM	> 100 µM	> 100 µM	> 100 µM	> 100 µM	> 100 µM	> 100 µM	> 100 µM	79.4 µM	91.8 µM	
COC1=C[C@]2(CCC(=O)O2)[C@@H]2Cc3ccccc3[C@H](O)[C@@H]2C1=O	44.4 µM		> 100 µM	> 100 µM		62 µM	> 100 µM	35.8 µM	> 100 µM		> 100 µM	30.1 µM
COC1OCC(O)C(NC(=O)N(C)N=O)C1O (centres undefined)	> 100 µM	> 100 µM	> 100 µM	> 100 µM	> 100 µM	> 100 µM	> 100 µM	> 100 µM	> 100 µM	> 100 µM	> 100 µM	
Cn1c2ccc(F)cc2c2ccc3c(c21)C(=O)C=CC3=O	4.95 µM		28.3 µM	67.7 µM		30.9 µM	49.2 µM	5.27 µM	> 100 µM		15.5 µM	27.7 µM
O=C(c1ccccc1)N1CCN(C(=S)NC2CCCCC2)C1=S	30.6 µM		33.2 µM	33.1 µM		38.6 µM	44.1 µM	45.1 µM	49.5 µM		36.7 µM	42.8 µM
